Measurements as given in patent publication US12577234B2, “Antagonists of the muscarinic acetylcholine receptor M4” (Vanderbilt University, priority 2017, dated 2026).

Target: T1, human mAChR M4 (Homo sapiens, UniProt P08173)
T1 construct: expressed in transfected cells; host or cells: CHO-K1 (ATCC), stably co-expressing chimeric G protein Gqi5
T1 sequence (P08173 1-479): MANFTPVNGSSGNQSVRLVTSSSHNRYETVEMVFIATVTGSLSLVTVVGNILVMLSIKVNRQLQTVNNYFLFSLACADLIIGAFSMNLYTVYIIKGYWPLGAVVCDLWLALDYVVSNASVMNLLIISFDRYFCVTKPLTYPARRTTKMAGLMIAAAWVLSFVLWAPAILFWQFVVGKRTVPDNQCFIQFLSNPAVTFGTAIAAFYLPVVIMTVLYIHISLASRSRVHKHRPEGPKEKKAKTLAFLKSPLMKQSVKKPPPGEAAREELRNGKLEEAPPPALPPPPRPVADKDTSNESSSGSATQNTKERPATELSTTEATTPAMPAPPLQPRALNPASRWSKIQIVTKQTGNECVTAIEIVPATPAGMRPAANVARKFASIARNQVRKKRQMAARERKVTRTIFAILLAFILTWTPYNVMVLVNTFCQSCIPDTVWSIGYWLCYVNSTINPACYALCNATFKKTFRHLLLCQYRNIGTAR
Test: mAChR M4 cell-based functional assay (calcium mobilization, EC80 acetylcholine), human M4
Conditions: Table 10; for IC50: M4/Gqi5/CHO-K1 cells, decrease of EC80 acetylcholine response
Procedure, shortened: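 CHO-K1 cells stably expressing human M4 with chimeric Gqi5; intracellular calcium rise read on FDSS as fluorescence static ratio at 1 Hz. Compounds in 10-point 1:3 dilution series; IC50 taken as concentration-dependent decrease of the EC80 acetylcholine response, four-parameter logistic fit.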

| Compound | Human M4 Emin [%] | IC50 [nM] |
| --- | --- | --- |
| Cc1cnn(C)c1-c1ccc(OC[C@H]2C[C@@H]3CN(CCC(C)(C)C)C[C@@H]3C2)nn1 [Compound 146, (3aR,5s,6aS)-2-(3,3-dimethylbutyl)-5-[[6-(2,4-dimethylpyrazol-3-yl)pyridazin-3-yl]oxymethyl]-3,3a,4,5,6,6a-hexahydro-1H-cyclopenta[c]pyrrole] | 4 | 167 |
| Cc1cnn(C)c1-c1ccc(OC[C@@H]2C[C@@H]3CN(CCC(C)(C)C)C[C@@H]3C2)nn1 [Compound 147, (3aR,5r,6aS)-2-(3,3-dimethylbutyl)-5-[[6-(2,4-dimethylpyrazol-3-yl)pyridazin-3-yl]oxymethyl]-3,3a,4,5,6,6a-hexahydro-1H-cyclopenta[c]pyrrole] | 4 | 42.4 |
| CC(=O)Nc1ccc(-c2ccc(N[C@H]3C[C@@H]4CN(CCC(C)(C)C)C[C@@H]4C3)c(F)c2F)cc1 [Compound 148, N-[4-[4-[[(3aR,5s,6aS)-2-(3,3-dimethylbutyl)-3,3a,4,5,6,6a-hexahydro-1H-cyclopenta[c]pyrrol-5-yl]amino]-2,3-difluoro-phenyl]phenyl]acetamide] | 4 | 997 |
| Cc1nn(C)cc1-c1ccc(N[C@H]2C[C@@H]3CN(CCC(C)(C)C)C[C@@H]3C2)nc1 [Compound 149, (3aR,5s,6aS)-2-(3,3-dimethylbutyl)-N-[5-(1,3-dimethylpyrazol-4-yl)-2-pyridyl]-3,3a,4,5,6,6a-hexahydro-1H-cyclopenta[c]pyrrol-5-amine] | 4 | 127 |
| Cc1nn(C)cc1-c1ccc(N[C@H]2C[C@@H]3CN(CC45CC6CC(CC(C6)C4)C5)C[C@@H]3C2)nc1 [Compound 150, (3aR,5s,6aS)-2-(1-adamantylmethyl)-N-[5-(1,3-dimethylpyrazol-4-yl)-2-pyridyl]-3,3a,4,5,6,6a-hexahydro-1H-cyclopenta[c]pyrrol-5-amine] | 3 | 161 |
| Cc1nn(C)cc1-c1ccc(N[C@H]2C[C@@H]3CN(CC4CC5C=CC4C5)C[C@@H]3C2)nc1 (stereo partly drawn) [Compound 151, (3aR,5s,6aS)-2-(5-bicyclo[2.2.1]hept-2-enylmethyl)-N-[5-(1,3-dimethylpyrazol-4-yl)-2-pyridyl]-3,3a,4,5,6,6a-hexahydro-1H-cyclopenta[c]pyrrol-5-amine] | 3 | 77.3 |
| Cc1nn(C)cc1-c1ccc(N[C@H]2C[C@@H]3CN(CC4CCOCC4)C[C@@H]3C2)nc1 [Compound 152, (3aR,5s,6aS)-N-[5-(1,3-dimethylpyrazol-4-yl)-2-pyridyl]-2-(tetrahydropyran-4-ylmethyl)-3,3a,4,5,6,6a-hexahydro-1H-cyclopenta[c]pyrrol-5-amine] | 8 | 1580 |
| Cc1nn(C)cc1-c1cnc(N[C@H]2C[C@@H]3CN(CCC(C)(C)C)C[C@@H]3C2)cn1 [Compound 153, (3aR,5s,6aS)-2-(3,3-dimethylbutyl)-N-[5-(1,3-dimethylpyrazol-4-yl)pyrazin-2-yl]-3,3a,4,5,6,6a-hexahydro-1H-cyclopenta[c]pyrrol-5-amine] | 5 | 124 |
| Cc1nn(C)cc1-c1cnc(N[C@H]2C[C@@H]3CN(CC4CC5C=CC4C5)C[C@@H]3C2)cn1 (stereo partly drawn) [Compound 154, (3aR,5s,6aS)-2-(5-bicyclo[2.2.1]hept-2-enylmethyl)-N-[5-(1,3-dimethylpyrazol-4-yl)pyrazin-2-yl]-3,3a,4,5,6,6a-hexahydro-1H-cyclopenta[c]pyrrol-5-amine] | 4 | 30.8 |
| Cc1nn(C)cc1-c1cnc(N[C@H]2C[C@@H]3CN(CC45CC6CC(CC(C6)C4)C5)C[C@@H]3C2)cn1 [Compound 155, (3aR,5s6aS)-2-(1-adamantylmethyl)-N-[5-(1,3-dimethylpyrazol-4-yl)pyrazin-2-yl]-3,3a,4,5,6,6a-hexahydro-1H-cyclopenta[c]pyrrol-5-amine] | 4 | 15.9 |
| CC(=O)Nc1ccc(-c2cnc(N[C@H]3C[C@@H]4CN(CCC(C)(C)C)C[C@@H]4C3)cn2)cc1 [Compound 156, N-[4-[5-[[(3aR,5s,6aS)-2-(3,3-dimethylbutyl)-3,3a,4,5,6,6a-hexahydro-1H-cyclopenta[c]pyrrol-5-yl]amino]pyrazin-2-yl]phenyl]acetamide] | 5 | 192 |
| CC(=O)Nc1ccc(-c2cnc(N[C@H]3C[C@@H]4CN(CC5CC6C=CC5C6)C[C@@H]4C3)cn2)cc1 (stereo partly drawn) [Compound 157, N-[4-[5-[[(3aR,5s,6aS)-2-(5-bicyclo[2.2.1]hept-2-enylmethyl)-3,3a,4,5,6,6a-hexahydro-1H-cyclopenta[c]pyrrol-5-yl]amino]pyrazin-2-yl]phenyl]acetamide] | 5 | 52.9 |
| CC(=O)Nc1ccc(-c2cnc(N[C@H]3C[C@@H]4CN(CC5CCOCC5)C[C@@H]4C3)cn2)cc1 [Compound 158, N-[4-[5-[[(3aR,5s,6aS)-2-(tetrahydropyran-4-ylmethyl)-3,3a,4,5,6,6a-hexahydro-1H-cyclopenta[c]pyrrol-5-yl]amino]pyrazin-2-yl]phenyl]acetamide] | 10 | 1090 |
| Fc1ccc(Cl)c(-c2ccc(N[C@@H]3C[C@@H]4CN(CC5CCOCC5)C[C@@H]4C3)nn2)c1 [Compound 159, (3aR,5r,6aS)-N-[6-(2-chloro-5-fluoro-phenyl)pyridazin-3-yl]-2-(tetrahydropyran-4-ylmethyl)-3,3a,4,5,6,6a-hexahydro-1H-cyclopenta[c]pyrrol-5-amine] | 4 | 84.1 |
| Fc1ccc(Cl)c(-c2ccc(N[C@H]3C[C@@H]4CN(Cc5ccccn5)C[C@@H]4C3)nn2)c1 [Compound 160, (3aR,5s,6aS)-N-[6-(2-chloro-5-fluoro-phenyl)pyridazin-3-yl]-2-(2-pyridylmethyl)-3,3a,4,5,6,6a-hexahydro-1H-cyclopenta[c]pyrrol-5-amine] | 3 | 4.03 |
| Fc1ccc(Cl)c(-c2ccc(N[C@H]3C[C@@H]4CN(Cc5cccnc5)C[C@@H]4C3)nn2)c1 [Compound 161, (3aR,5s,6aS)-N-[6-(2-chloro-5-fluoro-phenyl)pyridazin-3-yl]-2-(3-pyridylmethyl)-3,3a,4,5,6,6a-hexahydro-1H-cyclopenta[c]pyrrol-5-amine] | 5 | 54.1 |
| Fc1ccc(Cl)c(-c2ccc(N[C@H]3C[C@@H]4CN(Cc5ccncc5)C[C@@H]4C3)nn2)c1 [Compound 162, (3aR,5s,6aS)-N-[6-(2-chloro-5-fluoro-phenyl)pyridazin-3-yl]-2-(4-pyridylmethyl)-3,3a,4,5,6,6a-hexahydro-1H-cyclopenta[c]pyrrol-5-amine] | 3 | 4.52 |
| Fc1ccc(CN2C[C@H]3C[C@H](Nc4ccc(-c5cc(F)ccc5Cl)nn4)C[C@H]3C2)cc1 [Compound 163, (3aR,5s,6aS)-N-[6-(2-chloro-5-fluoro-phenyl)pyridazin-3-yl]-2-[(4-fluorophenyl)methyl]-3,3a,4,5,6,6a-hexahydro-1H-cyclopenta[c]pyrrol-5-amine] | 3 | 19.7 |
